This is an account of results in ChEMBL document CHEMBL1201862, “PubChem BioAssay data set” (2004).

Each structure is given as a SMILES string.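 Method: 48-hour compound exposure of cells in 96-well plates, five concentrations, linear interpolation of endpoints. At the GI50, growth is halved.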 Active and inactive are the calls of the source. Cut-off read from the data, not from the text of the source: active = GI50 up to about 1.1 µM and inactive = higher.

Test systems include 786-0; HCC 2998; K562; MOLT-4; NCI-H23; NCI-H460; OVCAR-3; SF-268; SF-295; SK-MEL-28; SK-MEL-2; SK-MEL-5; SN12C; SNB-19; SNB-75; TK-10; IGROV-1; UACC-257; HL-60.
Holding throughout (assay): NCI tumour cell line growth inhibition, 48 h

As to `CCN(CC)CC(C)(C)C(=O)/C=C/c1ccc(C)cc1`, the GI50 in the assay on 786-0 is 10.7 µM (inactive); with HCC 2998, 10 µM (inactive); with K562, 3.03 µM (inactive); in the assay with MOLT-4, 3.39 µM (inactive); in the assay on NCI-H23, > 10 µM (inactive); in the assay with NCI-H460, 6.08 µM (inactive). For the same compound, the GI50 in the assay with OVCAR-3 was 9.14 µM (inactive); with SF-268 it was 10.1 µM (inactive); in the assay with SF-295, 13.2 µM (inactive); in the assay on SK-MEL-28, 13.5 µM (inactive); in the assay on SK-MEL-2, 12.7 µM (inactive); in the assay with SK-MEL-5, 14.2 µM (inactive). Further, the GI50 in the assay with SN12C is 7.64 µM (inactive); with SNB-19, 11.8 µM (inactive); in the assay with SNB-75, 6.98 µM (inactive); with TK-10, 14.5 µM (inactive).
Take `Cc1ccccc1NC(=O)CC(=O)N1N=C(N2c3ccccc3Sc3ccccc32)CC1c1ccccc1` (stereo not given): the GI50 in the assay on HCC 2998, with IGROV-1, with MOLT-4, in the assay on NCI-H23, with NCI-H460 and with OVCAR-3 was > 100 µM (inactive) in each case. Also, the GI50 with SF-268, in the assay on SF-295, in the assay on SK-MEL-28, in the assay with SK-MEL-5, with SN12C and with SNB-19 was > 100 µM (inactive) in each case. Moreover, the GI50 in the assay on SNB-75, in the assay with TK-10 and in the assay with UACC-257 was > 100 µM (inactive) throughout.
Regarding `Cc1cc(C(C)(C)C)cc(Cc2cc(C(C)(C)C)cc(Cc3cc(C(C)(C)C)cc(C)c3O)c2O)c1O`, the GI50 in the assay with 786-0 was 5.64 µM (inactive); with HL-60, 3.71 µM (inactive); with IGROV-1 it was 11.3 µM (inactive); in the assay with K562, 4.54 µM (inactive); in the assay with MOLT-4 it was 3.04 µM (inactive); in the assay with NCI-H23, 10 µM (inactive). The GI50 in the assay on NCI-H460 was 10.1 µM (inactive); with OVCAR-3 it was 4.75 µM (inactive); in the assay with SF-268 it was 2.89 µM (inactive); with SF-295 it was 16 µM (inactive); in the assay on SK-MEL-2, 10.4 µM (inactive); in the assay on SK-MEL-5, 10 µM (inactive). The GI50 in the assay on SN12C is 7.28 µM (inactive); with SNB-19, 13 µM (inactive); in the assay on SNB-75, 4.49 µM (inactive); with TK-10, 16.3 µM (inactive); in the assay with UACC-257, 8.45 µM (inactive).
With `Cc1cc(Cl)ccc1/N=C1/NC(=O)C(CC(=O)Nc2cccc(C)c2C)S1` (stereo not given), the GI50 in the assay with 786-0 is 20.8 µM (inactive); in the assay on HCC 2998, 26.2 µM (inactive); in the assay with IGROV-1, 34.8 µM (inactive); in the assay with K562 it was 24.8 µM (inactive); with MOLT-4 it was 24.5 µM (inactive); with NCI-H23 it was 18.2 µM (inactive). Also, the GI50 was 31.3 µM (inactive) in the assay on NCI-H460; 31.2 µM (inactive) with OVCAR-3; 26 µM (inactive) in the assay on SF-268; 28 µM (inactive) with SF-295; 30.2 µM (inactive) with SK-MEL-28; 20.8 µM (inactive) in the assay on SK-MEL-2. Further, the GI50 in the assay on SK-MEL-5 is 20.4 µM (inactive); in the assay on SN12C it was 25.9 µM (inactive); in the assay with SNB-19, 26.8 µM (inactive); in the assay with SNB-75, 19.9 µM (inactive); in the assay with TK-10, 39.3 µM (inactive); in the assay with UACC-257, 29.5 µM (inactive).
Turning to `CN1C(=O)NC2(O)c3ccccc3C(=O)C12O` (stereo not given), the GI50 with 786-0, in the assay with HL-60, in the assay with IGROV-1, with K562, with MOLT-4 and in the assay with NCI-H23 was > 100 µM (inactive) in each case. Moreover, the GI50 in the assay with NCI-H460, in the assay with OVCAR-3, in the assay on SF-268, with SF-295, with SK-MEL-28 and in the assay on SK-MEL-2 was > 100 µM (inactive) throughout. Further, the GI50 with SNB-19, in the assay with SNB-75, in the assay on TK-10 and in the assay on UACC-257 was > 100 µM (inactive) each time.
`COC1=CC(=O)c2ccccc2C1(CCC=C(C)C)C1=NC(C)(C)CO1` (stereo not given): the GI50 was > 100 µM (inactive) with 786-0; 23.7 µM (inactive) in the assay with HL-60; 84.5 µM (inactive) in the assay with IGROV-1; 28.4 µM (inactive) with K562; 31.7 µM (inactive) in the assay with MOLT-4; 91.2 µM (inactive) with NCI-H23. For the same compound, the GI50 was > 100 µM (inactive) in the assay with NCI-H460; > 100 µM (inactive) in the assay with OVCAR-3; > 100 µM (inactive) in the assay on SF-268; 55.5 µM (inactive) in the assay with SF-295; > 100 µM (inactive) with SK-MEL-28; 83.6 µM (inactive) in the assay on SK-MEL-2. Further, the GI50 in the assay with SK-MEL-5 was > 100 µM (inactive); with SN12C it was 94.6 µM (inactive); in the assay on SNB-19, 84.9 µM (inactive); in the assay with SNB-75, > 100 µM (inactive); in the assay on TK-10, > 100 µM (inactive); in the assay with UACC-257, 54.6 µM (inactive).
For `COC1CCC(OS(C)(=O)=O)CO1` (stereo not given), the GI50 with HL-60 is 35 µM (inactive); in the assay with IGROV-1, > 100 µM (inactive); in the assay with K562, 69 µM (inactive); in the assay on MOLT-4, 20.6 µM (inactive); with NCI-H23, > 100 µM (inactive); in the assay on NCI-H460 it was > 100 µM (inactive). Besides, the GI50 is > 100 µM (inactive) in the assay on OVCAR-3; 86.7 µM (inactive) in the assay with SF-268; > 100 µM (inactive) with SF-295; > 100 µM (inactive) with SK-MEL-28; > 100 µM (inactive) with SK-MEL-2; > 100 µM (inactive) in the assay with SNB-19. The GI50 is 60.5 µM (inactive) in the assay with SNB-75 and > 100 µM (inactive) in the assay on UACC-257.
Take `CC1C=CC(=O)C(n2cc(F)c(=O)[nH]c2=O)O1` (stereo not given): the GI50 in the assay with 786-0 is 16 µM (inactive); in the assay with HL-60, 20.1 µM (inactive); in the assay on IGROV-1 it was 20.8 µM (inactive); in the assay on K562, 17.7 µM (inactive); in the assay with MOLT-4, 16.5 µM (inactive); with NCI-H23 it was 18.1 µM (inactive). Besides, the GI50 in the assay with NCI-H460 was 23.3 µM (inactive); in the assay with OVCAR-3, 17.3 µM (inactive); in the assay on SF-295, > 10 µM (inactive); with SK-MEL-28, 23.4 µM (inactive); in the assay on SK-MEL-5, 17.9 µM (inactive); with SN12C it was 18.4 µM (inactive). Further, the GI50 in the assay on SNB-19 was 22.2 µM (inactive); in the assay with SNB-75, 18.8 µM (inactive); with TK-10, 18.7 µM (inactive); with UACC-257 it was 16.4 µM (inactive).
`CC1Cc2c(N)nc(N3CCOCC3)nc2NC1=O` (stereo not given): the GI50 in the assay on 786-0, in the assay on HL-60, in the assay with IGROV-1, in the assay on K562, in the assay on MOLT-4 and in the assay with NCI-H23 was > 100 µM (inactive) throughout. For the same compound, the GI50 in the assay with NCI-H460, in the assay on OVCAR-3, with SF-295, with SK-MEL-28, in the assay on SK-MEL-2 and in the assay with SK-MEL-5 was > 100 µM (inactive) throughout. Also, the GI50 was > 100 µM (inactive) in the assay with SN12C; > 100 µM (inactive) in the assay with SNB-19; 5.53 µM (inactive) in the assay with SNB-75; > 100 µM (inactive) in the assay on TK-10; > 100 µM (inactive) in the assay with UACC-257.
With `C=C/C=C/NC(=O)OCc1ccccc1`, the GI50 in the assay with 786-0, in the assay on HL-60, in the assay with IGROV-1, in the assay with K562, with MOLT-4 and in the assay on NCI-H460 was > 100 µM (inactive) throughout. Besides, the GI50 in the assay with OVCAR-3, in the assay on SF-268, with SF-295, in the assay on SK-MEL-28, in the assay with SK-MEL-2 and with SK-MEL-5 was > 100 µM (inactive) throughout. The GI50 in the assay with SN12C, in the assay with SNB-19, in the assay with SNB-75, in the assay with TK-10 and in the assay on UACC-257 was > 100 µM (inactive) each time.
With `COc1cc(/C=C2\CCC(C)C3=C2N=c2s/c(=C/c4ccc(Cl)cc4)c(=O)n2C3c2cc(OC)c(OC)c(OC)c2)cc(OC)c1OC` (stereo not given), the GI50 in the assay on 786-0 was > 100 µM (inactive); in the assay on HL-60 it was > 100 µM (inactive); in the assay with IGROV-1, 20.5 µM (inactive); with K562, > 100 µM (inactive); with MOLT-4, > 100 µM (inactive); with SF-268, > 100 µM (inactive). Further, the GI50 is > 100 µM (inactive) in the assay on SK-MEL-28; > 100 µM (inactive) in the assay with SK-MEL-2; > 100 µM (inactive) in the assay with SK-MEL-5; > 100 µM (inactive) in the assay on SN12C; > 100 µM (inactive) with SNB-19; 0.277 µM (active) in the assay with SNB-75. The GI50 with TK-10 and in the assay on UACC-257 was > 100 µM (inactive) in each case.
Turning to `CC1CCCCc2nc3c(c(=O)n21)CCCC3` (stereo not given), the GI50 in the assay on 786-0, in the assay with HCC 2998, in the assay with IGROV-1, with K562, in the assay with MOLT-4 and in the assay on NCI-H23 was > 100 µM (inactive) each time. The GI50 in the assay on NCI-H460, in the assay with OVCAR-3, in the assay on SF-268, in the assay with SF-295, in the assay on SK-MEL-28 and in the assay on SK-MEL-2 was > 100 µM (inactive) throughout. Besides, the GI50 in the assay on SN12C, in the assay on SNB-19, in the assay with SNB-75, with TK-10 and in the assay with UACC-257 was > 100 µM (inactive) in each case.
